Assay results from the Kinase Knowledgebase extract (Sharma et al. 2016).
Values joined by “and” are separate entries in the source; they are usually repeats but may differ in a detail not shown here. Equal values may be shown once.

Tests used:
EGFR (human) [1] = target: EGFR (human) (UniProt P00533); settings: caski
EGFR (human) [2] = target: EGFR (human) (UniProt P00533); settings: HN5
EGFR (human) [3] = target: EGFR (human) (UniProt P00533); settings: siha
EGFR (human) [4] = target: EGFR (human) (UniProt P00533); settings: hn5
EGFR (human) [5] = target: EGFR (human) (UniProt P00533); settings: a431

Chain of EGFR (human) (P00533 whole entry, looked up): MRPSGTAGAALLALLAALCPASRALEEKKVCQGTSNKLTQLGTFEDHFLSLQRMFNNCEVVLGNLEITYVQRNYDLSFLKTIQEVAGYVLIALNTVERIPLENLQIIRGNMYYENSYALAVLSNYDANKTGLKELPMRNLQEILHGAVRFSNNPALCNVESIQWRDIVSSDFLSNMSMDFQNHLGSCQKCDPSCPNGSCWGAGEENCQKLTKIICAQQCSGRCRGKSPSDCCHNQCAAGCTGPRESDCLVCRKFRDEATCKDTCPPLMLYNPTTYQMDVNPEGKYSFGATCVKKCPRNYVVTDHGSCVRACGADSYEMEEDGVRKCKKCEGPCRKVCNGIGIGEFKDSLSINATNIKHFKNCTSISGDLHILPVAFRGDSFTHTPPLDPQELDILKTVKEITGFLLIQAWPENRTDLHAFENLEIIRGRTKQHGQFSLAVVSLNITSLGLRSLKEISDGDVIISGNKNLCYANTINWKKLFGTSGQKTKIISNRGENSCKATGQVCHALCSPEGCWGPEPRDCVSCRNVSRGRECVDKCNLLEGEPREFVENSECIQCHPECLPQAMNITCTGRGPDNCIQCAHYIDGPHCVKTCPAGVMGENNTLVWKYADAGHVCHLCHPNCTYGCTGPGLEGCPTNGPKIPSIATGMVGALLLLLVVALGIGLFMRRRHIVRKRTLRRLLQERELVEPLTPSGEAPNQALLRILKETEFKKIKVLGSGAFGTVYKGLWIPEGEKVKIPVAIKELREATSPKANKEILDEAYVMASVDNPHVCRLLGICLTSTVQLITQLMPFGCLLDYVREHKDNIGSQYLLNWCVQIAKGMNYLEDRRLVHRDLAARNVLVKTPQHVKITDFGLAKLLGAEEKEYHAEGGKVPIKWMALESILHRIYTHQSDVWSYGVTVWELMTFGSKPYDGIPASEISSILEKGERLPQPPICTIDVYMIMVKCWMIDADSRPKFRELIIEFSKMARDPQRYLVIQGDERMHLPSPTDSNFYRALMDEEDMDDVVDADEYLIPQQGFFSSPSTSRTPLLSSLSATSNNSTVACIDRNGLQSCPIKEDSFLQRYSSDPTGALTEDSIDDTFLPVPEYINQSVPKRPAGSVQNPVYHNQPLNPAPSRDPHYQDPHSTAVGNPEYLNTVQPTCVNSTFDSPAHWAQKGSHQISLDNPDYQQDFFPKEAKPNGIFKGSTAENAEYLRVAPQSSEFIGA

SMILES: N#CC(C#N)=C(N)/C(C#N)=C/c1ccsc1[N+](=O)[O-]
- IC50 (EGFR (human) [1]): 4.7 µM
- IC50 (EGFR (human) [2]): 14.6 µM
- IC50 (EGFR (human) [3]): 7.8 µM
- IC50 (EGFR (human) [4]): 5.1 µM
- IC50 (EGFR (human) [5]): 4.73 µM

SMILES: CCOC(=O)/C(C#N)=C/c1csc([N+](=O)[O-])c1
- IC50 (EGFR (human) [1]): > 100 µM
- IC50 (EGFR (human) [2]): 9 µM
- IC50 (EGFR (human) [3]): > 100 µM
- IC50 (EGFR (human) [4]): > 100 µM
- IC50 (EGFR (human) [5]): > 100 µM

SMILES: CCOC(=O)/C(C#N)=C/c1ccsc1[N+](=O)[O-]
- IC50 (EGFR (human) [2]): 100 µM

SMILES: N#C/C(=C\c1ccc([N+](=O)[O-])s1)C(=O)O
- IC50 (EGFR (human) [2]): 150 µM and > 500 µM

SMILES: N#C/C(=C\c1csc([N+](=O)[O-])c1)C(N)=S
- IC50 (EGFR (human) [2]): 10.5 µM

SMILES: CCCCOC(=O)/C(C#N)=C/c1cc([N+](=O)[O-])cs1
- IC50 (EGFR (human) [2]): > 500 µM

SMILES: COC(=O)/C(C#N)=C/c1ccsc1[N+](=O)[O-]
- IC50 (EGFR (human) [2]): 50 µM

SMILES: N#C/C(=C\c1cc([N+](=O)[O-])cs1)C(N)=O
- IC50 (EGFR (human) [2]): 47 µM

SMILES: CC(C)(C)OC(=O)/C(C#N)=C/c1ccc([N+](=O)[O-])s1
- IC50 (EGFR (human) [2]): 75 µM

SMILES: N#CC(C#N)=Cc1ccc([N+](=O)[O-])s1
- IC50 (EGFR (human) [1]): 25.8 µM
- IC50 (EGFR (human) [2]): 50 µM
- IC50 (EGFR (human) [3]): 25.4 µM
- IC50 (EGFR (human) [4]): 20.7 µM
- IC50 (EGFR (human) [5]): 28 µM

SMILES: N#CC(C#N)=C(N)/C(C#N)=C/c1cc([N+](=O)[O-])cs1
- IC50 (EGFR (human) [2]): 160 µM

SMILES: N#C/C(=C\c1csc([N+](=O)[O-])c1)C(N)=O
- IC50 (EGFR (human) [2]): > 500 µM

SMILES: N#CC(C#N)=C(N)/C(C#N)=C/c1csc([N+](=O)[O-])c1
- IC50 (EGFR (human) [1]): > 100 µM
- IC50 (EGFR (human) [2]): 7 µM
- IC50 (EGFR (human) [3]): > 100 µM
- IC50 (EGFR (human) [4]): > 100 µM
- IC50 (EGFR (human) [5]): > 100 µM

SMILES: N#C/C(=C\c1cc([N+](=O)[O-])cs1)C(N)=S
- IC50 (EGFR (human) [2]): > 500 µM

SMILES: N#C/C(=C\c1ccsc1[N+](=O)[O-])C(N)=S
- IC50 (EGFR (human) [1]): 0.32 µM
- IC50 (EGFR (human) [2]): 22.6 µM
- IC50 (EGFR (human) [3]): 0.35 µM
- IC50 (EGFR (human) [4]): 0.27 µM
- IC50 (EGFR (human) [5]): 0.11 µM

SMILES: COC(=O)/C(C#N)=C/c1cc([N+](=O)[O-])cs1
- IC50 (EGFR (human) [2]): 18 µM

SMILES: CC(C)(C)OC(=O)/C(C#N)=C/c1csc([N+](=O)[O-])c1
- IC50 (EGFR (human) [2]): 150 µM

SMILES: CCOC(=O)/C(C#N)=C/c1cc([N+](=O)[O-])cs1
- IC50 (EGFR (human) [2]): > 500 µM

SMILES: N#C/C(=C\c1csc([N+](=O)[O-])c1)C(=O)O
- IC50 (EGFR (human) [2]): > 500 µM

SMILES: N#C/C(=C\c1ccc([N+](=O)[O-])s1)C(N)=O
- IC50 (EGFR (human) [2]): > 500 µM

SMILES: N#C/C(=C\c1ccsc1[N+](=O)[O-])C(N)=O
- IC50 (EGFR (human) [2]): 400 µM

SMILES: COC(=O)/C(C#N)=C/c1ccc([N+](=O)[O-])s1
- IC50 (EGFR (human) [2]): > 500 µM

SMILES: N#CC(C#N)=Cc1ccsc1[N+](=O)[O-]
- IC50 (EGFR (human) [2]): 15.3 µM

SMILES: CCCCOC(=O)/C(C#N)=C/c1csc([N+](=O)[O-])c1
- IC50 (EGFR (human) [2]): > 500 µM

SMILES: N#C/C(=C\c1ccc([N+](=O)[O-])s1)C(N)=S
- IC50 (EGFR (human) [1]): 82.9 µM
- IC50 (EGFR (human) [2]): 37.5 µM
- IC50 (EGFR (human) [3]): 82.1 µM
- IC50 (EGFR (human) [4]): 66.9 µM
- IC50 (EGFR (human) [5]): 71.6 µM

SMILES: CC(C)(C)OC(=O)/C(C#N)=C/c1ccsc1[N+](=O)[O-]
- IC50 (EGFR (human) [2]): 9 µM

SMILES: N#CC(C#N)=Cc1cc([N+](=O)[O-])cs1
- IC50 (EGFR (human) [2]): 2 µM

SMILES: CCCCOC(=O)/C(C#N)=C/c1ccc([N+](=O)[O-])s1
- IC50 (EGFR (human) [2]): > 500 µM

SMILES: COC(=O)/C(C#N)=C/c1csc([N+](=O)[O-])c1
- IC50 (EGFR (human) [2]): > 500 µM

SMILES: CCCCOC(=O)/C(C#N)=C/c1ccsc1[N+](=O)[O-]
- IC50 (EGFR (human) [2]): > 500 µM
